Assay results as given in ChEMBL document CHEMBL1138603, “New Labdane diterpenes as intestinal alpha-glucosidase inhibitor from antihyperglycemic extract of Hedychium spicatum (Ham. Ex Smith) rhizomes” (Bioorg Med Chem Lett, 2009).
Activity calls are given as the source filed them. The rule behind the calls is not given here.

Molecular target: not listed separately
Test: Inhibition of rat intestinal alpha-glucosidase activity

Row | IC50 | Compound
1 | 34.1 µM | CC1=CC(=O)[C@H]2C(C)(C)CCC[C@]2(C)[C@H]1/C=C/C1=CC(=O)O[C@H]1O [SPICATANOL]
2 | 23.8 µM | C[C@H]1O[C@H](O[C@H]2[C@H](O)[C@@H](O)[C@@H](O[C@H]3[C@H](O)[C@@H](O)C(O)O[C@@H]3CO)O[C@@H]2CO)[C@H](O)[C@@H](O)[C@@H]1N[C@H]1C=C(CO)[C@@H](O)[C@H](O)[C@H]1O (stereo partly specified) [ACARBOSE]

Organism: Rattus norvegicus
Test: Inhibition of rat intestinal alpha-glucosidase activity at 100 ugmL

Row | inhibition | Compound
3 | 89.5% | CC1=CC(=O)[C@H]2C(C)(C)CCC[C@]2(C)[C@H]1/C=C/C1=CC(=O)O[C@H]1O [SPICATANOL]
4 | 13.5% | CC1=C(O)C(=O)[C@H]2C(C)(C)CCC[C@]2(C)[C@H]1/C=C/c1ccoc1
5 | 25.7% | CC(=O)OC1=C(C)[C@H](/C=C/c2ccoc2)[C@@]2(C)CCCC(C)(C)[C@@H]2C1=O
6 | 55.6% | CC1=CC(=O)[C@H]2C(C)(C)CCC[C@]2(C)[C@H]1/C=C/c1ccoc1
7 | 11.3% | C=C1[C@@H](O)CC2C(C)(C)CCC[C@]2(C)[C@H]1C/C=C1\CCOC1=O (stereo partly specified)
8 | inactive | C=C1CC[C@H]2C(C)(C)CCC[C@]2(C)[C@H]1C
9 | 54.1% | CO[C@@H]1OC(=O)C=C1/C=C/[C@H]1C(C)=CC(=O)[C@H]2C(C)(C)CCC[C@]12C
10 | 15.1% | CC1(C)CCC[C@]2(C)[C@@H](/C=C/c3ccoc3)C(CO)=CC(=O)[C@@H]12
11 | 35.1% | CC1=CC(=O)[C@H]2C(C)(C)CCC[C@]2(C)[C@H]1/C=C/C1=CC(=O)OC1
